# From PubChem BioAssay (NCI)
#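 Interpolation was linear, between the two tested concentrations surrounding the appropriate level; five concentrations were tested over 48 hours in 96-well plates. Abbreviation: GI50, concentration required for 50% inhibition of growth. At the TGI there is no net growth.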
# Assays:
# Test in all cases: growth of human tumour cells (NCI), 48 h
# [1] = system: SF-268 CNS
# [2] = system: MOLT-4 leukemia
# [3] = system: SF-539 CNS
# [4] = system: HS 578T breast
# [5] = system: NCI-H460 lung
# [6] = system: NCI/ADR-RES ovarian
# [7] = system: CAKI-1 renal
# [8] = system: M14 melanoma
# [9] = system: SK-MEL-28 melanoma
# [10] = system: HCT-116 colon
# [11] = system: PC-3 prostate
# [12] = system: MDA-MB-231 breast
# [13] = system: BT-549 breast
# [14] = system: CCRF-CEM leukemia
# [15] = system: MDA-MB-435
# [16] = system: IGROV1 ovarian
# [17] = system: HCT-15 colon
# [18] = system: HOP-62 NSCLC
# [19] = system: SK-MEL-5 melanoma
# [20] = system: U251 CNS
# [21] = system: SN12C renal
# [22] = system: COLO 205 colon
# [23] = system: LOX IMVI melanoma
# [24] = system: DU-145 prostate
# [25] = system: TK-10 renal
# [26] = system: OVCAR-4 ovarian
# [27] = system: HL-60(TB) leukemia
# [28] = system: SNB-19 CNS
# [29] = system: SW-620 colon
# [30] = system: SR leukemia
# [31] = system: RPMI-8226 leukemia
# [32] = system: HCC-2998 colon
# [33] = system: T-47D breast
# [34] = system: OVCAR-3 ovarian
# [35] = system: RXF 393 renal
# [36] = system: UACC-62 melanoma
# [37] = system: A498 renal
# [38] = system: NCI-H226 lung
# [39] = system: 786-0 renal
# [40] = system: MCF7 breast
# [41] = system: SK-OV-3 ovarian
# [42] = system: OVCAR-8 ovarian
# [43] = system: MALME-3M melanoma
# [44] = system: KM12 colon
# [45] = system: ACHN renal
# [46] = system: UO-31 renal
# [47] = system: HT29 colon
# [48] = system: NCI-H522 lung
# [49] = system: NCI-H23 lung
# [50] = system: OVCAR-5 ovarian
# [51] = system: K-562 leukemia
# [52] = system: SNB-75 CNS
# [53] = system: UACC-257 melanoma
# [54] = system: HOP-92 NSCLC
# [55] = system: A549 NSCLC
# [56] = system: SF-295 CNS
# [57] = system: SK-MEL-2 melanoma
# [58] = system: EKVX NSCLC
structure (smiles),measurement,setting,value
NC(=O)c1ccccc1Nc1ccc2nnc(-c3ccncc3)n2n1,GI50,[1],5.56 µM
same,TGI,[1],21 µM
same,GI50,[2],5.18 µM
same,TGI,[2],30.4 µM
same,GI50,[3],15.3 µM
same,TGI,[3],28.9 µM
same,GI50,[4],18.1 µM
same,TGI,[4],58.3 µM
same,GI50,[5],4.44 µM
same,TGI,[5],16.9 µM
same,GI50,[6],14.7 µM
same,TGI,[6],44.7 µM
same,GI50,[7],2.45 µM
same,TGI,[7],6.42 µM
same,GI50,[8],11.1 µM
same,TGI,[8],26.5 µM
same,GI50,[9],15.3 µM
same,TGI,[9],29.8 µM
same,GI50,[10],3.77 µM
same,TGI,[10],14.3 µM
same,GI50,[11],16.2 µM
same,TGI,[11],30.3 µM
same,GI50,[12],9.39 µM
same,TGI,[12],25.6 µM
same,GI50,[13],1.9 µM
same,TGI,[13],3.83 µM
same,GI50,[14],3.12 µM
same,TGI,[14],17.4 µM
same,GI50,[15],7.1 µM
same,TGI,[15],26.9 µM
same,GI50,[16],2.23 µM
same,TGI,[16],5.41 µM
same,GI50,[17],5.48 µM
same,TGI,[17],22.4 µM
same,GI50,[18],9.93 µM
same,TGI,[18],22.4 µM
same,GI50,[19],4.74 µM
same,TGI,[19],16.9 µM
same,GI50,[20],7.4 µM
same,TGI,[20],20.6 µM
same,GI50,[21],3.69 µM
same,TGI,[21],18.1 µM
same,GI50,[22],11.6 µM
same,TGI,[22],26.7 µM
same,GI50,[23],1.87 µM
same,TGI,[23],3.75 µM
same,GI50,[24],14.3 µM
same,TGI,[24],27.3 µM
same,GI50,[25],6.81 µM
same,TGI,[25],20.7 µM
same,GI50,[26],15.1 µM
same,TGI,[26],30.5 µM
same,GI50,[27],14.3 µM
same,TGI,[27],39.6 µM
same,GI50,[28],14.4 µM
same,TGI,[28],31.8 µM
same,GI50,[29],5.6 µM
same,TGI,[29],19.1 µM
same,GI50,[30],2.83 µM
same,TGI,[30],14.6 µM
same,GI50,[31],3.43 µM
same,TGI,[31],17.4 µM
same,GI50,[32],16.6 µM
same,TGI,[32],34.5 µM
same,GI50,[33],4.69 µM
same,TGI,[33],20.3 µM
same,GI50,[34],13.7 µM
same,TGI,[34],26.6 µM
same,GI50,[35],3.77 µM
same,TGI,[35],18.1 µM
same,GI50,[36],7.15 µM
same,TGI,[36],22.2 µM
same,GI50,[37],14.2 µM
same,TGI,[37],27.2 µM
same,GI50,[38],15 µM
same,TGI,[38],44.4 µM
same,GI50,[39],10.8 µM
same,TGI,[39],23.1 µM
same,GI50,[40],3.1 µM
same,TGI,[40],16.1 µM
same,GI50,[41],15.4 µM
same,TGI,[41],44.4 µM
same,GI50,[42],8.07 µM
same,TGI,[42],31.5 µM
same,GI50,[43],8.38 µM
same,TGI,[43],22.5 µM
same,GI50,[44],9.34 µM
same,TGI,[44],21.2 µM
same,GI50,[45],6.32 µM
same,TGI,[45],20.7 µM
same,GI50,[46],4.49 µM
same,TGI,[46],17.6 µM
same,GI50,[47],6.39 µM
same,TGI,[47],19.2 µM
same,GI50,[48],4.46 µM
same,TGI,[48],18 µM
same,GI50,[49],15 µM
same,TGI,[49],40.4 µM
same,GI50,[50],15.4 µM
same,TGI,[50],29.8 µM
same,GI50,[51],11.1 µM
same,TGI,[51],60.4 µM
same,GI50,[52],13.6 µM
same,TGI,[52],26.5 µM
CC[C@]1(Cc2ccc(OC)c(OC)c2)C=[N+]([O-])O[C@H](OC2CCCC2(c2ccccc2)c2ccccc2)[C@@H]1OC(C)=O (stereo partly drawn),TGI,[1],11.4 µM
same,TGI,[2],> 23.8 µM
same,TGI,[4],46.5 µM
same,TGI,[5],20.7 µM
same,TGI,[6],14.8 µM
same,TGI,[53],19.2 µM
same,TGI,[54],54.7 µM
same,TGI,[8],14.9 µM
same,TGI,[9],4.81 µM
same,TGI,[10],6.16 µM
same,TGI,[11],18.4 µM
same,TGI,[12],> 41.3 µM
same,TGI,[55],18.8 µM
same,TGI,[13],27.9 µM
same,TGI,[14],> 100 µM
same,TGI,[15],7 µM
same,TGI,[16],10.6 µM
same,TGI,[17],15.8 µM
same,TGI,[18],29.4 µM
same,TGI,[19],11.9 µM
same,TGI,[20],> 62 µM
same,TGI,[21],> 39.3 µM
same,TGI,[22],12 µM
same,TGI,[23],6.47 µM
same,TGI,[24],13.1 µM
same,TGI,[25],10.8 µM
same,TGI,[26],25.5 µM
same,TGI,[56],17.5 µM
same,TGI,[27],18.8 µM
same,TGI,[28],18.5 µM
same,TGI,[29],> 100 µM
same,TGI,[30],> 100 µM
same,TGI,[32],7.71 µM
same,TGI,[33],12.4 µM
same,TGI,[34],4.13 µM
same,TGI,[35],4.35 µM
same,TGI,[36],12.7 µM
same,TGI,[57],14.7 µM
same,TGI,[58],25.3 µM
same,TGI,[39],3.67 µM
same,TGI,[40],8 µM
same,TGI,[41],50.2 µM
same,TGI,[42],7.98 µM
same,TGI,[43],4.83 µM
same,TGI,[44],8.89 µM
same,TGI,[45],10.2 µM
same,TGI,[46],12.6 µM
same,TGI,[47],4.55 µM
same,TGI,[48],9.77 µM
same,TGI,[49],19.9 µM
same,TGI,[50],44.2 µM
same,TGI,[51],> 27.7 µM
same,TGI,[52],9.62 µM
c1csc(-c2cn3nc(-c4c[nH]c5ccccc45)sc3n2)c1,GI50,[1],3.84 µM
same,TGI,[1],> 100 µM
same,GI50,[3],1.49 µM
same,TGI,[3],4.6 µM
same,GI50,[4],2.65 µM
same,TGI,[4],> 100 µM
same,GI50,[5],0.574 µM
same,TGI,[5],> 100 µM
same,GI50,[6],0.561 µM
same,TGI,[6],> 100 µM
same,GI50,[53],11.4 µM
same,TGI,[53],98.3 µM
same,GI50,[7],0.997 µM
same,TGI,[7],> 100 µM
same,GI50,[54],5.46 µM
same,TGI,[54],> 100 µM
same,GI50,[8],0.75 µM
same,TGI,[8],15.8 µM
same,GI50,[9],4.74 µM
same,TGI,[9],44 µM
same,GI50,[10],0.627 µM
same,TGI,[10],70.6 µM
same,GI50,[11],2.07 µM
same,TGI,[11],> 100 µM
same,GI50,[12],1.08 µM
same,TGI,[12],7.88 µM
same,GI50,[55],1.72 µM
same,TGI,[55],> 100 µM
same,GI50,[13],2.87 µM
same,TGI,[13],31.7 µM
same,GI50,[14],2.19 µM
same,TGI,[14],27.2 µM
same,GI50,[15],0.225 µM
same,TGI,[15],0.685 µM
same,GI50,[16],1.79 µM
same,TGI,[16],> 100 µM
same,GI50,[17],0.488 µM
same,TGI,[17],15.6 µM
same,GI50,[18],1.58 µM
same,TGI,[18],39.9 µM
same,GI50,[19],0.714 µM
same,TGI,[19],15.1 µM
same,GI50,[20],1.21 µM
same,TGI,[20],17 µM
same,GI50,[21],1.15 µM
same,TGI,[21],> 100 µM
same,GI50,[24],2.86 µM
same,TGI,[24],> 100 µM
same,GI50,[25],5.21 µM
same,TGI,[25],33.5 µM
same,GI50,[26],4.42 µM
same,TGI,[26],> 100 µM
same,GI50,[56],1.74 µM
same,TGI,[56],6.44 µM
same,GI50,[27],0.76 µM
same,TGI,[27],20.9 µM
same,GI50,[28],2.56 µM
same,TGI,[28],> 100 µM
same,GI50,[29],0.434 µM
same,TGI,[29],> 100 µM
same,GI50,[31],1.47 µM
same,TGI,[31],15.4 µM
same,GI50,[32],2.99 µM
same,TGI,[32],26.7 µM
same,GI50,[34],0.924 µM
same,TGI,[34],9.02 µM
same,GI50,[35],2.05 µM
same,TGI,[35],50 µM
same,GI50,[36],0.738 µM
same,TGI,[36],18.7 µM
same,GI50,[37],5.97 µM
same,TGI,[37],23.6 µM
same,GI50,[57],1.08 µM
same,TGI,[57],23.8 µM
same,GI50,[38],9.94 µM
same,TGI,[38],> 100 µM
same,GI50,[58],1.99 µM
same,TGI,[58],> 100 µM
same,GI50,[39],3.06 µM
same,TGI,[39],> 100 µM
same,GI50,[40],1.17 µM
same,TGI,[40],20.2 µM
same,GI50,[41],2.8 µM
same,TGI,[41],82.7 µM
same,GI50,[42],2.72 µM
same,TGI,[42],> 100 µM
same,GI50,[43],10.4 µM
same,TGI,[43],36.9 µM
same,GI50,[44],0.498 µM
same,TGI,[44],10.5 µM
same,GI50,[45],3.23 µM
same,TGI,[45],52.5 µM
same,GI50,[46],1.71 µM
same,TGI,[46],> 100 µM
same,GI50,[47],0.413 µM
same,TGI,[47],10.2 µM
same,GI50,[48],0.754 µM
same,TGI,[48],> 100 µM
same,GI50,[49],4.47 µM
same,TGI,[49],> 100 µM
same,GI50,[50],4.27 µM
same,TGI,[50],76.4 µM
same,GI50,[51],0.382 µM
same,TGI,[51],39.9 µM
same,GI50,[52],0.445 µM
same,TGI,[52],8.09 µM
